Measured values from US5447716A, “Process for lightening the skin or treating pigmental blemishes using a composition containing benzomorpholine or 3,4-dihydro-2H-1,4-benzoxazine derivatives” (L'Oreal, priority 1993, dated 1995).

How the values were obtained:
fungal tyrosinase = experiment: in vitro inhibition test of the activity of tyrosinase (dopachrome formation at 475 nm); format: biochemical; details: inhibitor at 50 mol % with respect to tyrosine; L-dopa co-substrate; pH 6.5, 25° C.; lowering in maximum dopachrome (OD 475 nm at plateau) vs no inhibitor
Text: Some of the compounds of general formula (I) have been studied in comparison with an equivalent molar amount of hydroquinone in the in vitro inhibition test of the activity of tyrosinase.
According to this test, the amount of dopachrome formed during the chain of reactions of conversion of tyrosine to melanins is monitored by visible spectrometry at 475 nm. These reactions are catalyzed in vitro by fungal tyrosinase, in the presence of a reducing co-substrate (for example, a small amount of L-dopa) in order to initiate the hydroxylation reaction of L-tyrosine to L-dopa, which is then catalytically oxidized to dopaquinone and then to dopachrome, an intermediate product before the non-enzymatic oxidation reactions which result in the formation of melanins.
The concentration of dopachrome formed with time in the presence and in the absence of the inhibitor is thus measured.
The inhibitor concentrations are set at 50 mol % with respect to the concentration of tyrosine in the reaction medium.
The inhibition effect is expressed by the lowering in the maximum amount of dopachrome formed (optical density value at 475 nm read at the plateau of the curve) with respect to the amount obtained in the absence of inhibitor.
A--0.1M Phosphate buffer, pH=6.5 (1% Tween 20)
B--2·10^-3 M Mother solution of L-tyrosine in A
C--10^-4 M Mother solution of L-dopa in A
D--Mother solution of fungal tyrosinase in A containing 2,400 units/ml
E--10^-2 M Mother solution of the inhibitor in A (Solutions C and D are to be prepared on the day)
reference cell: 3 ml of A
homogenize and equilibrate at 25° C.
mix rapidly and observe the kinetics by measuring the absorbance at 475 nm as a function of time.

melanocytes = details: in words, background; cited from earlier work
[1] = in words, background; cited from earlier work

Row | Structure (SMILES) | % of inhibition (fungal tyrosinase) [%] | cytotoxicity for melanocytes (melanocytes) | irritation [1]
1 | Oc1ccc2c(c1)NCCO2 | -80 |  | 
2 | Oc1ccc2c(c1)OCCN2 | -71 |  | 
3 | Oc1ccc(O)cc1 [hydroquinone] | -33 | cytotoxic | particularly irritating
